One may read the logD as the decadic logarithm of the distribution of all forms, ionised or not, between an organic phase and buffer at a given pH. A lower logD goes with a more hydrophilic compound. In general, half-life refers to the time in which the quantity being followed falls by half.

We go through 16 molecules from ChEMBL document CHEMBL1127982, “Synthesis, chemical half-life and decomposition of new N3-(substituted) derivatives of CCNU” (Bioorg Med Chem Lett, 1994).

The first data set is described as follows: Partition coefficient (logD7.4). The note with it: octanol/water, pH 7.4.
With `CC(C)N(C(=O)NCCCl)C1CCCCC1`, the log distribution coefficient (logD) worked out at 2.36.

`C=CCN(C(=O)NCCCl)C1CCCCC1` returned a pH-dependent lipophilicity (logD) of 1.48.

Turning to `CC(O)CN(C(=O)NCCCl)C1CCCCC1` (centres undefined), the pH-dependent lipophilicity (logD) was 0.37.

`CC(C)(C)N(C(=O)NCCCl)C1CCCCC1` came in with a logD of 3.03.

`CC(C)CN(C(=O)NCCCl)C1CCCCC1` returned a log distribution coefficient (logD) of 1.93.

With `CN(C(=O)NCCCl)C1CCCCC1`, the logD is 1.41.

Take `CC(C)(C)N(C(=O)N(CCCl)N=O)C1CCCCC1`: the logD was found to be 2.46.

In turn, `CC(C)N(C(=O)N(CCCl)N=O)C1CCCCC1` yielded a log distribution coefficient (logD) of 1.78.

As for `O=NN(CCCl)C(=O)NC1CCCCC1` [LOMUSTINE], the pH-dependent lipophilicity (logD) was found to be 2.83.

A short description of a further data set: HChemical half-life was determined, not active.
Conditions: not given; call rule not given here
Type of data set: ADME.
Turning to `O=NN(CCCl)C(=O)N(CCCO)C1CCCCC1`, the T1/2 result is “Not Active”.

A further data set is described as follows: Chemical half-life was determined.
Conditions: not given
For `CC(O)CN(C(=O)N(CCCl)N=O)C1CCCCC1` (centres undefined), the half-life was 43.3 h.

`O=NN(CCCl)C(=O)N(C1CCCCC1)C1CCCCC1` had a half-life of 62.6 h.

Regarding `CCN(C(=O)N(CCCl)N=O)C1CCCCC1`, the half-life was 132 h.

Molecule `C#CCN(C(=O)N(CCCl)N=O)C1CCCCC1` gave a half-life of 76.8 h.

Regarding `CCCN(C(=O)N(CCCl)N=O)C1CCCCC1`, the half-life was 69.8 h.

Regarding `CN(C(=O)N(CCCl)N=O)C1CCCCC1`, the half-life is 47.8 h.

`CC(C)N(C(=O)N(CCCl)N=O)C1CCCCC1`: the half-life was 32.9 h. The half-life values of the last two molecules are within 1.5-fold of each other.

For the molecule `O=NN(CCCl)C(=O)NC1CCCCC1` [LOMUSTINE], the half-life is 2.1 h. Compared with the last molecule, the half-life is about 16-fold lower.

Another data set can be described thus: Chemical half-life was determined; not active. Type of data set: ADME.
Conditions: not given
As for `CC(C)(C)N(C(=O)N(CCCl)N=O)C1CCCCC1`, the T1/2 result is reported as “Not Active”.
